The source made the active and inactive calls. The rule behind the calls is not given here.
Tested on: P. yoelii liver stage in HepG2-A16-CD81EGFP, imaging
Test: Plasmodium liver-stage growth inhibition, dose response, imaging, Malaria Box, P. yoelii, HepG2-A16-CD81EGFP (AID 602156);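 note: infected cells exposed to compound for 48 hours before fixation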

SMILES | IC50
O=C1C2=C(Nc3ccccc3SC2c2ccc(Br)cc2)c2ccccc21 (stereo not drawn) | 327 nM
Clc1ccccc1-c1nc([P+](c2ccccc2)(c2ccccc2)c2ccccc2)c(N2CCOCC2)o1 | 95.6 nM
OCCNc1nc(Nc2ccccc2)nc2ccccc12 | 47.9 nM
COC(OC)C(C)=NNC(N)=S | 4.93 nM
CCC1CN2CCc3cc(OC)c(OC)cc3C2CC1CC1NCCc2cc(OC)c(OC)cc21 (stereo not drawn) | 80.2 nM
C[C@@H]1C[C@@H]([C@H](O)CC2CC(=O)NC(=O)C2)C(=O)[C@@H](C)C1 | 78.1 nM
CCCC1(CCC)NC(=S)N(c2ccc(C)c(C)c2)N1 | > 10000 nM (inactive)
CC(c1nc2ccc(Cl)cc2c(=O)n1C)N1CCN(S(=O)(=O)c2cccc3ccccc23)CC1 (stereo not drawn) | 22.3 nM
O=C(Nc1ccc(-c2nc3ccc(NC(=O)c4cccc([N+](=O)[O-])c4)cc3[nH]2)cc1)c1cccc([N+](=O)[O-])c1 | > 944 nM (inactive)
CCCCC(CC)C(=O)N1CCN(C(CC)c2nc3ccccc3c(=O)n2C)CC1 (stereo not drawn) | 231 nM
Cc1ccc(Nc2nc3c(N)nnc(N)c3nc2Nc2ccc(C)cc2)cc1 | 488 nM
CCCCCC[n+]1ccccc1/C=C/c1ccc(N(C)C)cc1 | 55.9 nM
O=c1c2ccccc2[nH]c2ccc(F)cc12 | 223 nM
CCCCCCCn1c2c(c(=N)c3ccccc31)CCC2 | 76.5 nM
CCNC(=O)C1CCN(c2cccc3c2C(=O)N(C2CCCCCCC2)C3=O)CC1 | 269 nM
CC(=O)N(C1=C(N2CCOCC2)C(=O)c2ccccc2C1=O)c1ccc(I)cc1 | 602 nM
c1ccc(OCCOc2ccc(Nc3ccnc4cc5ccccc5cc34)cc2)cc1 | 67.5 nM
CN1C(=O)N(C)C(NNC(N)=S)C1NNC(N)=S (stereo not drawn) | 15 nM
C1CCC(NP2(NC3CCCCC3)=NP(NC3CCCCC3)(NC3CCCCC3)=NP(NC3CCCCC3)(NC3CCCCC3)=N2)CC1 | 18.6 nM
O=C(O)Cn1cnc2nc3n(c2c1=O)CCC3 | > 765 nM (inactive)
CCN(CC)c1ccc(N=Cc2ccc(Sc3nc4ccccc4s3)o2)cc1 | > 10000 nM (inactive)
Cc1nc([P+](c2ccccc2)(c2ccccc2)c2ccccc2)c(N2CCCCC2)o1 | 82.4 nM
CCSc1ccc2ccccc2[n+]1CC | > 10000 nM (inactive)
N=c1c2c(n(Cc3ccc(Cl)cc3)c3c1CCC3)CCC2 | 91.1 nM
Cc1ccc(Nc2nc(NCc3ccccc3)c3ccccc3n2)cc1 | 278 nM
Cc1oc2c(c1C(=O)NCC1CCCO1)C(=O)c1ccccc1C2=O (stereo not drawn) | 189 nM
COc1cc(C(=O)N2N=C(c3c(-c4ccccc4)c4cc(Br)ccc4[nH]c3=O)CC2c2cccc([N+](=O)[O-])c2)cc(OC)c1OC (stereo not drawn) | 435 nM

SMILES | IC50
Cc1ccc(-c2cc(C(=O)OCC(=O)c3cccc([N+](=O)[O-])c3)c3cc(C)ccc3n2)cc1 | > 10000 nM (inactive)
O=C(Nc1ccc(-c2nc3ccc(NC(=O)c4ccc(Br)o4)cc3[nH]2)cc1)c1ccc(Br)o1 | 812 nM
CN(C)c1oc(-c2ccc(Cl)cc2Cl)nc1[P+](c1ccccc1)(c1ccccc1)c1ccccc1 | 129 nM
Cc1[nH]c2ccc(Br)cc2c(=O)c1CC(C)C | 244 nM
COc1ccc(Nc2cc(C)nc(NCc3ccccc3)n2)cc1 | 636 nM
Cc1ccc(-c2c[n+]3c(n2-c2ccc(C)cc2)CCCCC3)cc1 | 146 nM
CC[n+]1c(C=C2C=Cc3cc(C)ccc3N2C)sc(C)c1C | 11.3 nM
Cc1[nH]c2ccccc2c(=O)c1Br | 214 nM
COc1cccc(CNC(=O)C2CNCC2c2ccc(C(F)(F)F)cc2)c1 (stereo not drawn) | 857 nM
CCC(C)(C)c1ccc(OCCOCC[n+]2ccccc2)c(C(C)(C)CC)c1 | 96.2 nM
CN(C)c1cc[n+](CC(=O)Nc2ccc(Cl)cc2)cc1 | 584 nM
Clc1cccc(Nc2nc(NCc3ccco3)c3ccccc3n2)c1 | 383 nM
O=C1C2=C(Nc3ccccc3SC2c2cccs2)c2ccccc21 (stereo not drawn) | 90.4 nM
Cc1cccc(NC(=S)NC2CC3CCCC(C2)N3CCc2ccccc2)c1 (stereo not drawn) | 277 nM
c1ccc(Cc2cc[n+](Cc3ccccc3)cc2)cc1 | 4520 nM
Nc1ccc(N2CCCCCC2)cc1 | 1950 nM
Cc1cc(C(=O)Nc2cnn(Cc3ccc(Cl)cc3Cl)c2)no1 | 335 nM
O=C(C1CC1)N1CCc2cc(Br)cc(S(=O)(=O)N3CCCC3)c21 | > 10000 nM (inactive)
Cc1cccc(C)c1N(CC(=O)NCc1ccco1)S(C)(=O)=O | > 10000 nM (inactive)
Oc1cccc2ccc(Nc3ccccn3)nc12 | 142 nM
Cc1oc2c(c1C(=O)NC1CCS(=O)(=O)C1)C(=O)c1ccccc1C2=O (stereo not drawn) | 2.29 nM
O=C(c1ccc2nc(N3CCCCC3)sc2c1)N1CCN(Cc2ccc3c(c2)OCO3)CC1 | > 9220 nM (inactive)
c1ccc(-c2nn(-c3ccccc3)[n+](-c3ccccc3)n2)cc1 | 107 nM
CCOC(=O)c1c(CSc2ccccc2)oc2cc(CN(C)C)c(O)c(Cl)c12 | 7200 nM
Cc1ccc(-n2c(-c3ccccc3)cc(C=NNC(=O)c3cccc(-n4c(C)ccc4C)c3)c2-c2ccccc2)cc1 | 47.9 nM
O=C(Nc1ccc(-c2nc3ccccc3[nH]2)cc1)c1ccc(-c2ccc(Cl)cc2)o1 | 6650 nM

From PubChem BioAssay AID602156 (GNF / Scripps Winzeler lab, 2011)
